Data on eight molecules can be found in patent publication US20170239212A1, “[…] AND USE THEREOF AS ANTIVIRAL AGENTS” (priority 2014, published 2017).

SMILES strings stand for the structures. Like-named read-outs stand apart in the source and are kept apart here.

For series [1] the following is noted: ester bond, 2,4,6-trichlorobenzoyl chloride / Et3N / DMAP, toluene, 40.0 °C, 14.0 h.
Series [2] deals with U937 cells. Description: Attachment of U937 cells. The class given is cell-based, human. The conditions noted are these: 72 hours. Here is the method:
(§1) U937 cells (Sundstrom, C.; Nilsson, K.: Establishment and characterization of a human histiocytic lymphoma cell line (U-937). Int. J. Cancer 1976, 17: 565-577), purchased from ATCC (Manassas, Va.) and cultured in RPMI-1640 medium supplemented with 10% FBS (ATCC, Manassas, Va.), were plated in 35 mm dishes at a density of 2×10^5 living cells/ml and treated with different concentrations of the drugs or DMSO. After 72 hours, the number of cells in the supernatant (non-attached cells) and the number of attached cells (after trypsinization) were counted using a Beckman particle counter (Beckman Coulter Inc., Fullerton, Calif.). The number of attached cells is expressed as percent of total cells (FIGS. 8-10).
U937 cells were treated with PMA (0.1-100 nM), bryostatin 1 (1-1000 nM), the indicated compound (1-1000 nM), 10 nM PMA with different concentrations of bryostatin 1 (1-1000 nM) or 10 nM PMA with different concentrations of indicated compound (1-1000 nM) for 72 hours. The number of attached cells and total cells were counted and the attached cells were graphed as percent of total cells. The bars and error bars represent the average and the standard error of the mean of five independent experiment (FIGS. 8-10).
(§2) U937 cells (Sundstrom and Nilsson, 1976), purchased from ATCC (Manassas, Va.) and cultured in RPMI-1640 medium supplemented with 10% FBS (ATCC, Manassas, Va.), were plated in 35 mm dishes at a density of 1×10^5 living cells/ml and treated with different concentrations of the drugs or DMSO. After 72 hours, the number of cells in the supernatant (non-attached cells) and the number of attached cells (after trypsinization) were counted using a particle counter. The number of attached cells is expressed as percent of total cells.
U937 cells were treated with PMA (0.01-100 nM), bryostatin 1 (0.1-1000 nM), analogue 12 (MERLE 28) (0.1-1000 nM), 10 nM PMA with different concentrations of bryostatin 1 (0.1-1000 nM) or 10 nM PMA with different concentrations of analogue 12 (0.1-1000 nM). The number of attached cells and total cells were counted and the attached cells were graphed as percent of total cells. The bars and error bars represent the average and the standard error of the mean of at least three independent experiments.
as §2
U937 cells were treated with PMA (0.1-100 nM), bryostatin 1 (1-1000 nM), the indicated compound (1-1000 nM), 10 nM PMA with different concentrations of bryostatin 1 (1-1000 nM) or 10 nM PMA with different concentrations of indicated compound (1-1000 nM) for 72 hours. The number of attached cells and total cells were counted and the attached cells were graphed as percent of total cells. The bars and error bars represent the average and the standard error of the mean of at least three independent experiments.

The subject of series [3] is U937 cells. Briefly: Inhibition of U937 cell proliferation. The class given is cell-based, human. Here is the method:
as §1
U937 cells were treated with PMA (0.1-100 nM), bryostatin 1 (1-1000 nM), the indicated compound (1-1000 nM), 10 nM PMA with different concentrations of bryostatin 1 (1-1000 nM) or 10 nM PMA with different concentrations of indicated compound (1-1000 nM). The number of attached and non-attached cells was counted and the number of total cells was expressed as % of control. The bars and error bars represent the average and the standard error of the mean of five independent experiments (FIGS. 8-10).
as §2
U937 cells were treated with PMA (0.01-100 nM), bryostatin 1 (0.1-1000 nM), analogue 12 (MERLE 28) (0.1-1000 nM), 10 nM PMA with different concentrations of bryostatin 1 (0.1-1000 nM) or 10 nM PMA with different concentrations of analogue 12 (0.1-1000 nM). The numbers of attached and non-attached cells were counted and the number of total cells was expressed as % of control. The bars and error bars represent the average and the standard error of the mean of at least three independent experiments.
as §2
U937 cells were treated with PMA (0.1-100 nM), bryostatin 1 (1-1000 nM), the indicated compound (1-1000 nM), 10 nM PMA with different concentrations of bryostatin 1 (1-1000 nM) or 10 nM PMA with different concentrations of indicated compound (1-1000 nM). The number of attached and non-attached cells was counted and the number of total cells was expressed as % of control. The bars and error bars represent the average and the standard error of the mean of at least three independent experiments.

The nature of the next series: in vitro. The class given is cell-based. The settings on record: human; Jurkat cells, knock down of cellular ATP. How it is done:
(§3) The compounds were also tested in the T cell derived Jurkat cell line transfected with a luciferase reporter under control of an HIV long terminal repeat (LTR) promoter. Specifically, EC50 and CC50 values were determined in parallel using 10 concentrations of compound from 3 fold serial dilutions starting a 5 uM as the highest concentration. Cells and media were added to compounds with a final concentration of DMSO of 1% and incubated at 37° C., 5% CO2 for 24, 48 and 72 hours. EC50 was measured by induced luciferase activity detected by the use of the Steady-Glo® Luciferase reagent (PROMEGA) with an EnVision (Perkin-Elmer) plate reader. CC50 was determined by the dose dependent knock down of cellular ATP detected by the use of CellTiter-Glo® Luminescent Cell Viability reagent (PROMEGA) with an EnVision (Perkin-Elmer) plate reader.

Series [4] has as its system HIV long terminal repeat (LTR) promoter. Description: cells. The settings on record: Jurkat cells; for EC50: Human immunodeficiency virus 1, LTR-luciferase, incubated 24, 48 and 72 hours (time of the listed values not stated); for Selectivity (CC50:EC50) / selectivity ratio: ratio of the CC50 to the EC50; for selectivity ratio: human. The class given is cell-based. How it is done: as §3

Where [5] appears, read: 10 nM PMA with different concentrations of compound.

Regarding `C=C1C[C@@H]2C[C@@H]3CC(=C)C[C@H](/C=C/C(C)(C)[C@]4(OC)O[C@@H](C/C(=C\C(=O)OC)[C@@H]4OC(=O)/C=C/C=C/CCC)C[C@H]([C@@H](C)OCOCc4ccccc4)OC(=O)C[C@H](OCc4ccc(OC)cc4)C[C@H](C1)O2)O3`, the ring closure, yield of all isomers in series [1] (from C=C1C[C@H](C[C@@H]2CC(=C)C[C@H](/C=C/C(C)(C)[C@]3(OC)O[C@H](C[C@@H](O)[C@@H](C)OCOCc4ccccc4)C/C(=C\C(=O)OC)[C@@H]3OC(=O)/C=C/C=C/CCC)O2)O[C@H](C[C@H](CC(=O)O)OCc2ccc(OC)cc2)C1, 0.74 mM, 2 steps) amounted to 52%.

In series [1] (from C=C1C[C@H](C[C@@H]2CC(=C)C[C@H](/C=C/C(C)(C)[C@]3(OC)O[C@H](C[C@@H](O)[C@@H](C)OCOCc4ccccc4)C/C(=C\C(=O)OC)[C@@H]3OC(C)=O)O2)O[C@H](C[C@H](CC(=O)O)OCc2ccc(OC)cc2)C1, 0.97 mM, 2 steps), `C=C1C[C@@H]2C[C@@H]3CC(=C)C[C@H](/C=C/C(C)(C)[C@]4(OC)O[C@@H](C/C(=C\C(=O)OC)[C@@H]4OC(C)=O)C[C@H]([C@@H](C)OCOCc4ccccc4)OC(=O)C[C@H](OCc4ccc(OC)cc4)C[C@H](C1)O2)O3` yielded a ring closure, yield of all isomers of 58%.

Take `C=C1C[C@@H]2C[C@@H]3CC(=C)C[C@H](/C=C/C(C)(C)[C@]4(OC)O[C@@H](CCC4=O)C[C@H]([C@@H](C)OCOCc4ccccc4)OC(=O)C[C@H](OCc4ccc(OC)cc4)C[C@H](C1)O2)O3`: the ring closure, yield of all isomers in series [1] (from C=C1C[C@H](C[C@@H]2CC(=C)C[C@H](/C=C/C(C)(C)[C@]3(OC)O[C@H](C[C@@H](O)[C@@H](C)OCOCc4ccccc4)CCC3=O)O2)O[C@H](C[C@H](CC(=O)O)OCc2ccc(OC)cc2)C1, 0.85 mM, 2 steps) came out at 87%.

`C=C1C[C@H]2C[C@H]3C[C@@H](O[Si](CC)(CC)CC)C[C@@H](C[C@@H](OCc4ccc(OC)cc4)CC(=O)O[C@@H]([C@@H](C)OCOCc4ccccc4)C[C@@H]4C/C(=C\C(=O)OC)[C@H](OC(=O)CCCCCCC)[C@@](OC)(O4)C(C)(C)/C=C/[C@@H](C1)O2)O3` displayed a ring closure, yield of all isomers in series [1] (from C=C1C[C@@H](C[C@H]2C[C@@H](O[Si](CC)(CC)CC)C[C@@H](C[C@H](CC(=O)O)OCc3ccc(OC)cc3)O2)O[C@@H](/C=C/C(C)(C)[C@]2(OC)O[C@H](C[C@@H](O)[C@@H](C)OCOCc3ccccc3)C/C(=C\C(=O)OC)[C@@H]2OC(=O)CCCCCCC)C1, 0.79 mM) of 91%.

As to `C=C1C[C@H]2C[C@]3(OC)O[C@H](C[C@@H](O[Si](CC)(CC)CC)CC(=O)O[C@@H]([C@@H](C)OCOCc4ccccc4)C[C@@H]4C/C(=C\C(=O)OC)[C@H](OC(=O)/C=C/C=C/CCC)[C@@](OC)(O4)C(C)(C)/C=C/[C@@H](C1)O2)C[C@H](OC(C)=O)C3(C)C`, the ring closure, yield of all isomers in series [1] (from C=C1C[C@@H](C[C@]2(OC)O[C@H](C[C@H](CC(=O)O)O[Si](CC)(CC)CC)C[C@H](OC(C)=O)C2(C)C)O[C@@H](/C=C/C(C)(C)[C@]2(OC)O[C@H](C[C@@H](O)[C@@H](C)OCOCc3ccccc3)C/C(=C\C(=O)OC)[C@@H]2OC(=O)/C=C/C=C/CCC)C1, 0.62 mM, 2 steps) was found to be 62%.

With `C=C1C[C@H]2CC3(O)O[C@H](C[C@@H](O)CC(=O)O[C@@H]([C@@H](C)O)C[C@@H]4C/C(=C\C(=O)OC)[C@H](OC(=O)/C=C/C=C/CCC)[C@@](O)(O4)C(C)(C)/C=C/[C@@H](C1)O2)C[C@H](OC(C)=O)C3(C)C` [MERLE 28], the “Block of PMA-induced attachment of U937 cells” value in the series on U937 cells [2] (setting [5]) is “blocks the effect of the phorbol ester when the two agents are administered together”. Moreover, the “Attachment of U937 cells (attached cells as percent of total)” value in the series with U937 cells [2] (compound alone) is recorded as “approaches that of bryostatin 1 itself”. Moreover, in the series on U937 cells [3] (setting [5]), the “Block of PMA inhibition of U937 cell proliferation” value was “Both of these aspects of bryostatin 1 induced biological response are captured”. The “Inhibition of U937 cell proliferation (total cells as % of control)” value in the series on U937 cells [3] (compound alone, 72 hours) is “very similar to those for bryostatin 1”.

As a reminder, the CC50 is the concentration that lowers cell viability or growth by half. By EC50 is commonly meant the midpoint of the concentration-response curve. Lower therefore signals a more potent agent. `C=C1CC2C[C@@H](O)CC(=O)O[C@@H]([C@@H](C)O)C[C@@H]3C/C(=C\C(=O)OC)[C@H](OC(C)=O)[C@@](O)(O3)C(C)(C)/C=C/[C@H]3CC(=C)C[C@@H](C[C@@H](C1)O2)O3` [MERLE 35]: the half-maximal cytotoxic concentration (CC50) in the series “in vitro” turned out to be 50 nM. In addition, in series [4], the EC50 was 10 nM, the “Selectivity (CC50:EC50)” value is reported as “greater than one” and the selectivity ratio is 5.

With `C=C1CC2C[C@@H](O)CC(=O)O[C@@H]([C@@H](C)O)C[C@@H]3C/C(=C\C(=O)OC)[C@H](OC(=O)CCCCCN(C)C)[C@@](O)(O3)C(C)(C)/C=C/[C@H]3CC(=C)C[C@@H](C[C@@H](C1)O2)O3` [MERLE 37], in the series “in vitro”, the CC50 was determined as 550 nM. In addition, in series [4], the midpoint of the response, the EC50, lay at 80 nM; the “Selectivity (CC50:EC50)” value was “greater than one”; the selectivity ratio was determined as 6.9.
